Assay results: patent publication US9493464B2, “Wee1 degradation inhibitors” (The Scripps Research Institute, priority 2012, dated 2016)
Entries after “also recorded” stand apart in the source; their conditions may differ.

Columns and labels:
Format in all cases: cell-based
Luciferase = Luciferase alone control (PGL3 vector); details: HeLa cells, cycloheximide, 5 μM; result in words
Procedure: (§1) The percentage of signal relative to the proteasome inhibitor MG132 is shown. […] A Western blot is shown of endogenous Wee1 or Skp1 (loading control) of HeLa cells incubated with 5 μM of indicated compounds for 24 hours. […] The 0 time point was set to 100%. […] The extent of degradation was measured as in FIG. D.
5 μM of indicated compounds were incubated with K328M-Wee1-Luciferase or Luciferase expressing HeLa cells and the extent of stabilization measured after adding Brite-lite. MG132 was used as a positive control.
Similar assays have previously been described; PubChem AID 1807.

K328M-Wee1-luciferase = K328M-Wee1-luciferase degradation with cycloheximide; details: HeLa cells, 5 μM, result in words
Procedure: as §1

endogenous Wee1 = assay: Western blot of endogenous Wee1; details: result in words
Procedure: as §1

c1ccc2[nH]c(CNc3nc(N4CCOCC4)nc4c3ncn4-c3ccsc3)nc2c1 [SR-653234]
luciferase degradation (Luciferase): does not affect luciferase degradation
K328M-Wee1-luciferase degradation (K328M-Wee1-luciferase): inhibited degradation of K328M-Wee1-luciferase; also recorded: inhibits K328M-Wee1-luciferase degradation
steady-state levels of endogenous Wee1 (endogenous Wee1): increased the steady-state levels of endogenous Wee1
